Assay results as given in ChEMBL document CHEMBL4665775, “Half-life extension of peptidic APJ agonists by N-terminal lipid conjugation” (Bioorg Med Chem Lett, 2020).

Key:
[1] = Half life in Sprague-Dawley rat at 0.5 mg/kg, sc administered as single dose and measured up to 48 hrs; type: ADME, organism-based; conditions: in vivo
[2] = Bioavailability in Sprague-Dawley rat at 0.5 mg/kg, sc administered as single dose and measured up to 48 hrs; type: ADME, organism-based; conditions: in vivo
[3] = Tmax in Sprague-Dawley rat at 0.5 mg/kg, sc administered as single dose and measured up to 48 hrs; type: ADME, organism-based; conditions: in vivo
[4] = AUC (0 to t) in Sprague-Dawley rat at 0.5 mg/kg, sc administered as single dose and measured up to 48 hrs; type: ADME, organism-based; parameters: route subcutaneous, dose 0.5 mg/kg, time <=48; conditions: in vivo
[5] = Unbound Cmax in Sprague-Dawley rat at 0.5 mg/kg, sc administered as single dose and measured up to 48 hrs; type: ADME, organism-based; conditions: in vivo
[6] = Half life in Sprague-Dawley rat at 0.1 mg/kg, iv administered as single dose and measured up to 48 hrs; type: ADME, organism-based; conditions: in vivo
[7] = Volume of distribution at steady state in Sprague-Dawley rat at 0.1 mg/kg, iv administered as single dose and measured up to 48 hrs; type: ADME, organism-based; conditions: in vivo, read-out: Vdss
[8] = Unbound clearance in Sprague-Dawley rat at 0.1 mg/kg, iv administered as single dose and measured up to 48 hrs; type: ADME, organism-based; conditions: in vivo
[9] = Clearance in Sprague-Dawley rat at 0.1 mg/kg, iv administered as single dose and measured up to 48 hrs; type: ADME, organism-based; conditions: in vivo
[10] = AUC (0 to t) in Sprague-Dawley rat at 0.1 mg/kg, iv administered as single dose and measured up 48 hrs; type: ADME, organism-based; parameters: dose 0.1 mg/kg, time <=48; conditions: in vivo
Apelin receptor = target: T1, Apelin receptor (Rattus norvegicus, UniProt Q9JHG3); assay: Agonist activity at rat APJ receptor stably expressed in CHO cell membranes in presence of [35S]GTPgammaS by scintillation proximity assay; type: functional
T1 sequence (Q9JHG3 whole entry): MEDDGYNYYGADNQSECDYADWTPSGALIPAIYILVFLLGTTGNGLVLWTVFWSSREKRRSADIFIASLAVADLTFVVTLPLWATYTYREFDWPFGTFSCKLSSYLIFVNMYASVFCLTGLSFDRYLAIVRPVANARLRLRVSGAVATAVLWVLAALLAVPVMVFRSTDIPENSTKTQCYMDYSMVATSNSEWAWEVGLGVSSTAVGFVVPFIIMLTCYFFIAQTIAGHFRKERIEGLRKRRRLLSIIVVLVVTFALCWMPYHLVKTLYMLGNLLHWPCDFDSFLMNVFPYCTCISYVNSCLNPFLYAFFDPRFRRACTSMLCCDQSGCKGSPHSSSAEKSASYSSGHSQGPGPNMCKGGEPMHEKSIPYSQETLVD

[11] = Stability in rat plasma assessed as compound remaining at 4 hrs; type: ADME, cell-free; conditions: read-out: Stabilty
[12] = Stability in rat liver S9 fraction assessed as compound remaining at 4 hrs; type: ADME, subcellular; conditions: read-out: Stabilty
[13] = Stability in rat Kidney S9 fraction assessed as compound remaining at 4 hrs; type: ADME, subcellular; conditions: read-out: Stabilty
[14] = Plasma protein binding in rat assessed as unbound fraction by LC-MS/MS analysis; type: ADME, cell-free

Compound	half-life [1]	bioavailability [2]	Tmax [3]	AUC(0-t) at 48 h [4]	fCmax [5]	half-life [6]	Vd [7]	CL free [8]	clearance [9]	AUC(0-t) at 48 h [10]	EC50 (Apelin receptor)	remaining at 4 h [11]	remaining at 4 h [12]	remaining at 4 h [13]	fraction unbound [14]
CCCCCCCCCCCCCCCCC(=O)N[C@@H](CCC(=O)NCCOCCOCC(=O)NCCOCCOCC(=O)N[C@@H](CCCCNC(=N)N)C(=O)N[C@H](CCCNC(=N)N)C(=O)N[C@@H](CCC(N)=O)C(=O)N[C@@H](CCCCNC(=N)N)C(=O)N1CCC[C@H]1C(=O)N[C@H](CCCNC(=N)N)C(=O)N(C)[C@@H](CC(C)C)C(=O)N[C@@H](CO)C(=O)N[C@@H](Cc1c[nH]cn1)C(=O)N[C@@H](CCCCN)C(=O)NCC(=O)N1[C@H](C(=O)N[C@@H](Cc2ccc(I)cc2)C(=O)N2CCC[C@H]2C(=O)N[C@H](Cc2ccc(-c3ccccc3)cc2)C(=O)O)C[C@@H]2CCCC[C@@H]21)C(=O)O	10.3 h	36%	12 h	0.753 µM·h	0.27 nM	2.18 h	0.092 L/kg	200 mL/min/kg	1.23 mL/min/kg	0.465 µM·h	7.42 nM	79%	68%	83%	0.0064
CC(=O)N[C@@H](CCCCNC(=N)N)C(=O)N[C@H](CCCNC(=N)N)C(=O)N[C@@H](CCC(N)=O)C(=O)N[C@@H](CCCCNC(=N)N)C(=O)N1CCC[C@H]1C(=O)N[C@H](CCCNC(=N)N)C(=O)N(C)[C@@H](CC(C)C)C(=O)N[C@@H](CO)C(=O)N[C@@H](Cc1c[nH]cn1)C(=O)N[C@@H](CCCCN)C(=O)NCC(=O)N1[C@H](C(=O)N[C@@H](Cc2ccc(I)cc2)C(=O)N2CCC[C@H]2C(=O)N[C@H](Cc2ccc(-c3ccccc3)cc2)C(=O)O)C[C@@H]2CCCC[C@@H]21	–	–	–	–	–	0.362 h	0.298 L/kg	56.2 mL/min/kg	10.1 mL/min/kg	0.073 µM·h	1.95 nM	86%	41%	45%	0.179
CC(C)C[C@@H](C(=O)N[C@@H](CO)C(=O)N[C@@H](Cc1c[nH]cn1)C(=O)N[C@@H](CCCCN)C(=O)NCC(=O)N1[C@H](C(=O)N[C@@H](Cc2ccc(I)cc2)C(=O)N2CCC[C@H]2C(=O)N[C@H](Cc2ccc(-c3ccccc3)cc2)C(=O)O)C[C@@H]2CCCC[C@@H]21)N(C)C(=O)[C@@H](CCCNC(=N)N)NC(=O)[C@@H]1CCCN1C(=O)[C@H](CCCCNC(=N)N)NC(=O)[C@H](CCC(N)=O)NC(=O)[C@@H](CCCNC(=N)N)NC(=O)[C@H](CCCCNC(=N)N)NC(=O)COCCOCCNC(=O)COCCOCCNC(=O)CC[C@H](NC(=O)CCCCC(=O)O)C(=O)O	4.1 h	58%	4.7 h	1.98 µM·h	1.2 nM	2.32 h	0.139 L/kg	152 mL/min/kg	0.92 mL/min/kg	0.682 µM·h	4.1 nM	> 90%	15%	76%	0.0061
CCCCCC(=O)N[C@@H](CCC(=O)NCCOCCOCC(=O)NCCOCCOCC(=O)N[C@@H](CCCCNC(=N)N)C(=O)N[C@H](CCCNC(=N)N)C(=O)N[C@@H](CCC(N)=O)C(=O)N[C@@H](CCCCNC(=N)N)C(=O)N1CCC[C@H]1C(=O)N[C@H](CCCNC(=N)N)C(=O)N(C)[C@@H](CC(C)C)C(=O)N[C@@H](CO)C(=O)N[C@@H](Cc1c[nH]cn1)C(=O)N[C@@H](CCCCN)C(=O)NCC(=O)N1[C@H](C(=O)N[C@@H](Cc2ccc(I)cc2)C(=O)N2CCC[C@H]2C(=O)N[C@H](Cc2ccc(-c3ccccc3)cc2)C(=O)O)C[C@@H]2CCCC[C@@H]21)C(=O)O	2.6 h	56%	4 h	1.05 µM·h	0.37 nM	2.31 h	0.203 L/kg	483 mL/min/kg	1.64 mL/min/kg	0.372 µM·h	2.31 nM	–	–	–	0.0034
